# Values joined by “and” are separate entries in the source; they are usually repeats but may differ in a detail not shown here. Identical values can stand only once.
# Tests used:
# [1] = tested on: E. faecium VRE 55A6; assay: microbe, parasite or virus in culture; assay type: cell-based, Enterococcus faecium
# Text: In therapeutic applications, synergy between active ingredients occurs when an observed combined therapeutic effect is greater than the sum of therapeutic effects of individual active ingredients, or a new therapeutic effect is produced that the active ingredients could not produce alone. […] In this context, the enhancement of therapeutic effect may take the form of increased efficacy or potency and/or decreased adverse effects. The synergistic effect may be mediated in whole or in part by the pharmacokinetics and/or pharmacodynamics of the active ingredients in a subject, so that the amount and proportion of the ingredients in the formulation may be synergistic in vivo. This in vivo synergy may be effected with a formulation that includes the active ingredients in amounts and proportions that are also synergistic in in vitro assays of efficacy. As used herein, the term “synergistically effective amounts” accordingly refers to amounts that are synergistic in vivo and/or in vitro. A numeric quantification of synergy is often expressed as a fractional inhibitory concentration index (FICI), which represents the sum of the fractional inhibitory concentrations (FICs) of each drug tested, where the FIC is determined for each drug by dividing the minimum inhibitory concentration (MIC, the lowest concentration of the drug which prevents visible growth of the bacterium in a standard in vitro assay-standard colorometric assay based on resazurin) of each drug when used in combination by the MIC of each drug when used alone. In very general terms, a FICI lower or higher than 1 indicates positively correlated activity (at least additive or potentiation) or an absence of positive interactions, respectively. More definitively, synergy of two compounds may be conservatively defined as a FICI of ::::0.5 (see Odds, 2003; with additivity or potentiation corresponding to a FICI of >0.5 to ::::0.75; no interaction (indifference) corresponding to a FICI of >1 to ::::4; and antagonism corresponding to a FICI of >>4). […] (Berenbaum, 1978; Yu et al., 1980). To estimate the optimal concentrations in triple combinations, the optimal concentrations of trans-caryophyllene and cannabinoid were utilized in combination with a series of daptomycin dilutions.
# (§1) Pre-cultures of bacteria growing in their corresponding liquid media (defined below) were diluted to an 00600 of 0.0025 and 100 μl was added to 100 μl of medium containing serial 2-fold dilutions of cannabinoid (cannabinoid stocks, in methanol or acetonitrile for acidic forms, were diluted in growth medium) in 96-well plates. Plates were then incubated for 20-24 h at 37° C., and growth was recorded as 00600 in a Thermo Scientific™ Varioskan™ Flash Multimode Reader.
# (§2) FICI values was determined in a 96 well checkerboard format using the MIC assay for cannabinoids (compound A), terpenes (compound B), and daptomycin (compound C) alone and in combinations. Terpene stocks were prepared in DMSO and diluted in the growth medium. The fractional inhibitory concentration for each compound was calculated as follows: FICA=(MIC of compound A in the presence of compound B)/(MIC of compound A alone). Similarly, the FICs for compounds Band C were calculated. The FICI was calculated as FICA plus FICs plus FICc.
# [2] = tested on: E. faecium 3303; assay: microbe, parasite or virus in culture; assay type: cell-based, Enterococcus faecium; conditions: for Max. fold change in MIC: decrease
# Text: In therapeutic applications, synergy between active ingredients occurs when an observed combined therapeutic effect is greater than the sum of therapeutic effects of individual active ingredients, or a new therapeutic effect is produced that the active ingredients could not produce alone. […] In this context, the enhancement of therapeutic effect may take the form of increased efficacy or potency and/or decreased adverse effects. The synergistic effect may be mediated in whole or in part by the pharmacokinetics and/or pharmacodynamics of the active ingredients in a subject, so that the amount and proportion of the ingredients in the formulation may be synergistic in vivo. This in vivo synergy may be effected with a formulation that includes the active ingredients in amounts and proportions that are also synergistic in in vitro assays of efficacy. As used herein, the term “synergistically effective amounts” accordingly refers to amounts that are synergistic in vivo and/or in vitro. A numeric quantification of synergy is often expressed as a fractional inhibitory concentration index (FICI), which represents the sum of the fractional inhibitory concentrations (FICs) of each drug tested, where the FIC is determined for each drug by dividing the minimum inhibitory concentration (MIC, the lowest concentration of the drug which prevents visible growth of the bacterium in a standard in vitro assay-standard colorometric assay based on resazurin) of each drug when used in combination by the MIC of each drug when used alone. In very general terms, a FICI lower or higher than 1 indicates positively correlated activity (at least additive or potentiation) or an absence of positive interactions, respectively. More definitively, synergy of two compounds may be conservatively defined as a FICI of ::::0.5 (see Odds, 2003; with additivity or potentiation corresponding to a FICI of >0.5 to ::::0.75; no interaction (indifference) corresponding to a FICI of >1 to ::::4; and antagonism corresponding to a FICI of >>4). Synergy of three compounds has been defined as a FICI of ::::1.0. (Berenbaum, 1978; Yu et al., 1980). To estimate the optimal concentrations in triple combinations, the optimal concentrations of trans-caryophyllene and cannabinoid were utilized in combination with a series of daptomycin dilutions.
# as §1
# Method for Tables 4-7. Interaction of Cannabinoids CBC, CBD and CBG with Terpenes and Daptomycin:
# as §2
# [3] = tested on: Staphylococcus epidermidis ATCC 14990; assay: MIC determination; assay type: cell-based; conditions: ATCC14990; Staphylococcus epidermidis ATCC 14990; read-out: MIC
# [4] = tested on: Staphylococcus aureus MRSA; assay: microbe, parasite or virus in culture; assay type: cell-based; conditions: read-out: MIC
# [5] = tested on: E. faecium clinical isolate 69C6 (vancomycin resistant); assay: microbe, parasite or virus in culture; conditions: Enterococcus faecium
# [6] = tested on: Mycobacterium abscessus ATCC 19977; assay: MIC determination (resazurin); assay type: cell-based; conditions: Mycobacteroides abscessus, ATCC19977; Mycobacterium abscessus ATCC 19977; read-out: MIC
# [7] = tested on: Enterococcus faecium 33D3; assay: microbe, parasite or virus in culture
# [8] = tested on: E. faecium clinical isolate 55A6 (vancomycin and daptomycin resistant); assay: microbe, parasite or virus in culture; conditions: Enterococcus faecium
# [9] = E. faecium VRE 55A6, compound alone in checkerboard
# [10] = E. faecium VRE 55A6, pairwise, with CBC
# [11] = E. faecium VRE 55A6, pairwise, with CBD
# [12] = E. faecium VRE 55A6, pairwise, with CBG
# [13] = E. faecium VRE 55A6, pairwise, with trans-caryophyllene
# [14] = E. faecium VRE 55A6, text b61, Table 7D
# [15] = E. faecium VRE 55A6, triple, with CBC and trans-caryophyllene
# [16] = E. faecium VRE 55A6, triple, with CBD and trans-caryophyllene
# [17] = E. faecium VRE 55A6, triple, with CBG and trans-caryophyllene
# [18] = E. faecium 3303, compound alone in checkerboard
# [19] = E. faecium 3303, pairwise, with CBC
# [20] = E. faecium 3303, pairwise, with CBD
# [21] = E. faecium 3303, pairwise, with CBG
# [22] = E. faecium 3303, pairwise, with trans-caryophyllene
# [23] = E. faecium 3303, text b61, Table 5
# [24] = E. faecium 3303, triple, with CBC and trans-caryophyllene
# [25] = E. faecium 3303, triple, with CBG and trans-caryophyllene
# [26] = E. faecium 3303, pairwise, with daptomycin
# [27] = E. faecium 3303, triple, with daptomycin and trans-caryophyllene
smiles,measurement,setting,value
"CCCCCCCCCC(=O)N[C@@H](Cc1c[nH]c2ccccc12)C(=O)N[C@H](CC(N)=O)C(=O)N[C@@H](CC(=O)O)C(=O)N[C@@H]1C(=O)NCC(=O)N[C@@H](CCCN)C(=O)N[C@@H](CC(=O)O)C(=O)N[C@H](C)C(=O)N[C@@H](CC(=O)O)C(=O)NCC(=O)N[C@H](CO)C(=O)N[C@@H]([C@H](C)CC(=O)O)C(=O)N[C@@H](CC(=O)c2ccccc2N)C(=O)O[C@@H]1C [Daptomycin, daptomycin, reference compound]",MIC Alone,[1]; [9],16 µg/mL and >16 µg/mL
same,MIC In combination,[1]; [10],0.031 µg/mL
same,Max. fold change in MIC,[1]; [10],512 fold
same,MIC In combination,[1]; [11],1 µg/mL
same,Max. fold change in MIC,[1]; [11],16 fold
same,MIC In combination,[1]; [12],4 µg/mL
same,Max. fold change in MIC,[1]; [12],4 fold
same,MIC In combination,[1]; [13],8 µg/mL
same,Max. fold change in MIC,[1]; [13],2 fold
same,MIC of daptomycin (alone),[1]; [14],> 16 µg/mL
same,MIC of daptomycin in the presence of CBC and trans caryophyllene,[1]; [14],0.03 µg/mL
same,MIC In combination,[1]; [15],0.03 µg/mL
same,Max. fold change in MIC,[1]; [15],>512 fold
same,Max. fold change in MIC,"[1]; E. faecium VRE 55A6, triple, with CBC and trans-caryophyllene, listed as daptomycin",> 512 fold
same,MIC In combination,[1]; [16],2 µg/mL
same,Max. fold change in MIC,[1]; [16],>8 fold
same,MIC In combination,[1]; [17],2 µg/mL
same,Max. fold change in MIC,[1]; [17],>8 fold
same,MIC Alone,[2]; [18],8 µg/mL
same,MIC Alone,"[2]; E. faecium 3303, compound alone in checkerboard, listed as daptomycin",4 µg/mL
same,MIC In combination,[2]; [19],0.03125 µg/mL
same,Max. fold change in MIC,[2]; [19],128 l fold
same,Max. fold change in MIC,"[2]; E. faecium 3303, pairwise, with CBC, listed as daptomycin",128 fold
same,MIC In combination,[2]; [20],0.25 µg/mL
same,Max. fold change in MIC,[2]; [20],16″′ fold
same,MIC In combination,[2]; [21],0.25 µg/mL
same,Max. fold change in MIC,[2]; [21],32″′ fold
same,MIC In combination,[2]; [22],0.5 µg/mL
same,Max. fold change in MIC,[2]; [22],8 l fold and 8″′ fold
same,MIC of daptomycin (alone),[2]; [23],8 µg/mL
same,MIC of daptomycin in the presence of CBO and trans caryophyllene,[2]; [23],0.03 µg/mL
same,MIC In combination,[2]; [24],4 µg/mL
same,Max. fold change in MIC,[2]; [24],2 l fold
same,MIC In combination,"[2]; E. faecium 3303, triple, with CBD and trans-caryophyllene",0.03 µg/mL
same,Max. fold change in MIC,"[2]; E. faecium 3303, triple, with CBD and trans-caryophyllene, listed as daptomycin",256 fold
same,MIC In combination,[2]; [25],2 µg/mL
same,Max. fold change in MIC,[2]; [25],4 l fold
"C=C(C)[C@@H]1CCC(C)=C[C@H]1c1c(O)cc(CCCCC)cc1O [CBD, cannabidiol, reference compound]",MIC Alone,[1]; [9],2 µg/mL
same,MIC In combination,"[1]; E. faecium VRE 55A6, pairwise, with daptomycin",0.5 µg/mL
same,MIC In combination,[1]; [13],1 µg/mL
same,MIC In combination,"[1]; E. faecium VRE 55A6, triple, with daptomycin and trans-caryophyllene",0.5 µg/mL
same,MIC,"[1]; Enterococcus faecium, VRE, read-out: MIC Alone, E. faecium VRE 55A6, compound alone in checkerboard",4 µg/mL
same,MIC,[3],2 µg/mL
same,MIC,[4],2 µg/mL
same,MIC Alone,[2]; [18],2 µg/mL
same,MIC In combination,[2]; [26],1 µg/mL
same,Max. fold change in MIC,[2]; [26],4″′ fold
same,MIC In combination,[2]; [22],0.125 µg/mL
same,Max. fold change in MIC,[2]; [22],16″′ fold
same,MIC In combination,[2]; [27],0.5 µg/mL
same,Max. fold change in MIC,[2]; [27],4 fold
same,MIC,"[2]; Enterococcus faecium, 3303, read-out: MIC Alone, E. faecium 3303, compound alone in checkerboard",4 µg/mL
same,MIC,[5],1 µg/mL
same,MIC,[6],16 µg/mL
same,MIC,"[7]; 33D3, Enterococcus faecium 33D3 (Table 1)",1 to 2 µg/mL
same,MIC,"[7]; 33D3, clinical enterococcal strain 3303",1 µg/mL
same,MIC,[8],2 µg/mL

# Source: patent publication US11744819B2, “Antibiotic cannabinoid-terpene formulations” (priority 2019, dated 2023)
